Results from patent US20140037792A1, “Isolated microorganism strains Lactobacillus plantarum MCC1 DSM 23881 and Lactobacillus gasseri MCC2 DSM 23882 and their use” (Bio-Competence Centre of Healthy Dairy Products, priority 2011, published 2014).
≈ marks a conversion by molar mass, not a printed value. Like-named read-outs stand apart in the source and are kept apart here.

What was measured:
Lactobacillus spp = details: European Commission 2002; cited from earlier work
[1] = system: L. plantarum MCC1 DSM 23881; assay: Antibiotic susceptibility, E-test; format: cell-based; details: for resistance of L. plantarum MCC1 to the antibiotic: according to European Commission indicators for lactobacilli
Protocol: (§1) Methodology: The susceptibility of L. plantarum MCC1 and L. gasseri MCC2 to antibiotics was tested with the help of E-test (AB Biodisk, Solna). The minimum inhibitory concentration was determined according to the epidemiological breakpoints recommended by the European Commission.

[2] = system: L. gasseri MCC2 DSM 23882; assay: Antibiotic susceptibility, E-test; format: cell-based
Protocol: as §1

[3] = system: Obligately homofermentative lactobacilli (OHOL); details: FEEDAP Panel EFSA 2008; cited from earlier work
L. plantarum = details: FEEDAP Panel EFSA 2008; cited from earlier work
[4] = Lactiplantibacillus plantarum, DSM23881, read-out: MIC
[5] = Lactobacillus gasseri, DSM23882, read-out: MIC
[6] = Lactiplantibacillus plantarum, DSM23881
[7] = E-test, against L. plantarum MCC1
[8] = E-test, against L. gasseri MCC2

Molecule	MIC breakpoint for resistance, Lactobacillus spp (Lactobacillus spp) [µg/mL]	MIC [1, 4] [µg/mL]	MIC [2, 5] [µg/mL]	MIC breakpoint for resistance, OHOL [3] [µg/mL]	MIC breakpoint for resistance, L. plantarum (L. plantarum) [µg/mL]	further results
CC1(C)S[C@@H]2[C@H](NC(=O)[C@H](N)c3ccccc3)C(=O)N2[C@H]1C(=O)O [Ampicillin]	2	0.094 (≈ 0.269 µM)	0.031 (≈ 0.0887 µM)	1	2	–
CO[C@@]1(NC(=O)Cc2cccs2)C(=O)N2C(C(=O)O)=C(COC(N)=O)CS[C@@H]21 [Cefoxitin]	4	256 (≈ 599 µM)	1.5 (≈ 3.51 µM)	–	–	resistance of L. plantarum MCC1 to the antibiotic [1]: resistant
CO/N=C(\C(=O)N[C@@H]1C(=O)N2C(C(=O)O)=C(COC(N)=O)CS[C@H]12)c1ccco1 [Cefuroxim]	–	0.5 (≈ 1.18 µM)	0.19 (≈ 0.448 µM)	–	–	–
O=C(N[C@H](CO)[C@H](O)c1ccc([N+](=O)[O-])cc1)C(Cl)Cl [Chloramphenicol]	16	1.5 (≈ 4.64 µM)	0.75 (≈ 2.32 µM)	4	8	–
O=C(O)c1cn(C2CC2)c2cc(N3CCNCC3)c(F)cc2c1=O [Ciprofloxacin]	4	0.38 (≈ 1.15 µM)	> 32	–	–	–
CCC[C@@H]1C[C@@H](C(=O)N[C@@H]([C@H]2O[C@H](SC)[C@H](O)[C@@H](O)[C@H]2O)[C@H](C)Cl)N(C)C1 [Clindamycin]	–	0.064 (≈ 0.151 µM)	–	–	–	–
CC[C@H]1OC(=O)[C@H](C)[C@@H](O[C@H]2C[C@@](C)(OC)[C@@H](O)[C@H](C)O2)[C@H](C)[C@@H](O[C@@H]2O[C@H](C)C[C@H](N(C)C)[C@H]2O)[C@](C)(O)C[C@@H](C)C(=O)[C@H](C)[C@@H](O)[C@]1(C)O [Erythromycin]	4	–	0.047 (≈ 0.064 µM)	1	1	MIC [1, 6]: 0.125 µg/mL (≈ 0.17 µM)
C[C@@H](O)[C@H]1C(=O)N2C(C(=O)O)=C(SCCN=CN)C[C@H]12 [Imipenem]	–	–	0.047 (≈ 0.157 µM)	–	–	–
CO[C@H]1/C=C/O[C@@]2(C)Oc3c(C)c(O)c4c(O)c(c(/C=N/N5CCN(C)CC5)c(O)c4c3C2=O)NC(=O)/C(C)=C\C=C\[C@H](C)[C@H](O)[C@@H](C)[C@@H](O)[C@@H](C)[C@H](OC(C)=O)[C@@H]1C [Rifampin]	32	–	0.064 (≈ 0.0778 µM)	–	–	–
[H]/N=C(/N)N[C@H]1[C@H](O)[C@@H](O)[C@H](O[C@@H]2O[C@@H](C)[C@](O)(C=O)[C@H]2O[C@@H]2O[C@@H](CO)[C@H](O)[C@@H](O)[C@@H]2NC)[C@@H](N/C(N)=N\[H])[C@@H]1O [Streptomycin]	16	16 (≈ 27.5 µM)	–	16	–	–
CN(C)[C@@H]1C(O)=C(C(N)=O)C(=O)[C@@]2(O)C(O)=C3C(=O)c4c(O)cccc4[C@@](C)(O)[C@H]3C[C@@H]12 [Tetracycline]	–	2 (≈ 4.5 µM)	0.5 (≈ 1.13 µM)	–	–	–
CN[C@H](CC(C)C)C(=O)N[C@H]1C(=O)N[C@@H](CC(N)=O)C(=O)N[C@H]2C(=O)N[C@H]3C(=O)N[C@H](C(=O)N[C@H](C(=O)O)c4cc(O)cc(O)c4-c4cc3ccc4O)[C@H](O)c3ccc(c(Cl)c3)Oc3cc2cc(c3O[C@@H]2O[C@H](CO)[C@@H](O)[C@H](O)[C@H]2O[C@H]2C[C@](C)(N)[C@H](O)[C@H](C)O2)Oc2ccc(cc2Cl)[C@H]1O [Vancomycin]	4	–	–	2	–	MIC [1, 6]: 256 µg/mL (≈ 177 µM); resistance of L. plantarum MCC1 to the antibiotic [1]: resistant; MIC ([2]; Lactobacillus gasseri, DSM23882): 0.75 µg/mL (≈ 0.518 µM)
Gentamicin	1	–	–	16	16	MIC [1, 7]: 1.5 µg/mL; MIC [2, 8]: 2 µg/mL
Quinupristin/dalfopristin	4	–	–	4	4	MIC [1, 7]: 1 µg/mL
Trim/sulfam	32	–	–	–	–	MIC [2, 8]: >32 µg/mL
